Read-outs that look alike come from different tables or passages of the source.
How the values were obtained:
[1] = system: 1586; assay: MTT cell viability, 1586; type: cell-based; details: Head and neck cancer cell line 1586
Procedure: (§1) The ability of the flurbiprofen analog compounds of the invention to inhibit cancer cell growth and survival (viability) in a variety of cancer lines was examined in a standard MTT assay for cell viability, as detailed in Example 2.
(§2) A similar study was conducted on 14 […] cancer cell lines, identified in Table 2.
(§3) Cell growth and survival following treatment with N—[(S)-2-Fluoro-α-methyl-4-biphenylacetyl]-[L-(4-phenylphenyl)alanine]-N-(2,2,6,6-tetramethyl-4-piperidinyl)amide (GCBH-110=B1031; (S)-Fmba-L-Bip-Atmp) were measured by a rapid colorimetric assay based on the tetrazolium salt MTT (3-(4,5-dimethylthiazol-2-yl)-2,5-diphenyl tetrazolium bromide) (Mosmann, J. Immunol. Methods 65: 55-63, 1983, with minor modifications).
(§4) Briefly, approximately 1,000-5,000 cancer cells from 15 different cancer cells lines were plated in 100 μL of growth medium in 96-well flat-bottomed microtiter plates. Cells were incubated overnight to allow recovery. Compounds to be tested were added to the cells in triplicate in a range of concentrations and the cells were incubated at 37° C., 5% CO2, with 100% humidity. Control cells were treated in the same way without antagonists. […] Plates were incubated for 4 days, allowing sufficient time for cell replication and compound-induced cell death to occur. […] Absorbance was immediately determined using a scanning multiwell plate reader. […]

[2] = system: UMSCC22B; assay: MTT cell viability, UMSCC22B; type: cell-based; details: Homo sapiens; Head and neck cancer cell line UMSCC22B
Procedure: as §1, §2, §3, §4

[3] = system: H865; assay: MTT cell viability, H865; type: cell-based; details: 96 h; SCLC lung cell line H865; 4 days incubation
Procedure: as §1
(§5) The studies reported in Tables 1-3 above were carried out by incubating the cells in the test compound for four days, under standard cell-culture conditions, and measuring cell survival on day 5 (see Example 2).
as §3
(§6) Briefly, approximately 1,000-5,000 cancer cells from 15 different cancer cells lines were plated in 100 μL of growth medium in 96-well flat-bottomed microtiter plates. Cells were incubated overnight to allow recovery. Compounds to be tested were added to the cells in triplicate in a range of concentrations and the cells were incubated at 37° C., 5% CO2, with 100% humidity. Control cells were treated in the same way without antagonists. […] Absorbance was immediately determined using a scanning multiwell plate reader.

[4] = system: L35; assay: MTT cell viability, L35; type: cell-based; details: Pancreatic cancer cell, 96 h; Pancreatic cancer cells L35; 4 days incubation
Source text: as §1
Similar results were obtained for the effect of the B1031 compound on the 14 pancreatic tumor cells lines shown in Table 3 below, where the dose dependent effect of the compound on survival of the pancreatic cancer cell lines is shown in FIG. 5.
as §5, §3
Briefly, approximately 1,000-5,000 cancer cells from 15 different cancer cells lines were plated in 100 μL of growth medium in 96-well flat-bottomed microtiter plates. Cells were incubated overnight to allow recovery. […] Absorbance was immediately determined using a scanning multiwell plate reader.

[5] = system: H1334; assay: MTT cell viability, H1334; type: cell-based; details: 96 h; Large Cell lung cell line H1334; 4 days incubation
Procedure: as §1, §5, §3, §6

[6] = system: MiaPaCa pancreatic carcinoma solid tumor xenograft; assay: MiaPaCa pancreatic carcinoma xenograft in nude mice; type: in vivo, athymic nude mice; details: 5 mg/kg/every day intraperitoneal, beginning on the eleventh day following implantation, FIG. 12
Procedure: Similar results were obtained when the treatment method was applied to animals having pancreatic carcinoma implants, as shown in FIG. 12.
In a second study, athymic nude mice were implanted subcutaneously with suspensions of approximately 2 million MiaPaCa pancreatic carcinoma cells, in Matrigel suspension. […] The compound was initially dissolved in dimethyl sulfoxide (DMSO) and diluted with medium. Tumor size was measured with a caliper three times per week, and tumor volume calculated as above. At autopsy, tumors were removed and weighed.

[7] = system: H2122 cells; assay: Cell cycle phase distribution in H2122 cells; type: cell-based; details: six concentrations, 24, 48 and 72 hours, FIG. 10
Procedure: FIG. 10 is a plot showing the percentages of H122 cells G1, S, and G2 cycle at […], and 72 hours, as a function of B1031 concentration in the cell medium.
FIG. 10 provides an explanation of the time-dependent IC50 values observed in FIG. 7, and insight into the mechanism by which the compounds of the invention exert their anti-cancer effect. In the study shown in FIG. 10, H2122 cells were cultured in the presence of one of the six concentrations of the B1031 compound, as indicated in the figure. At time periods 24, 48, and 72 hours after incubation with the compound, cells from each of the six cultures (having increasing concentrations of the compound), were examined for percent cells in G1, S, or G2 cell phase.

[8] = system: H520; assay: MTT cell viability, H520; type: cell-based; details: Homo sapiens, NCI-H520, 96 h; Squamous lung cell line H520; 4 days incubation
Procedure: as §1, §5, §3, §6

[9] = system: H2122; assay: MTT cell viability, H2122 lung carcinoma cell line; type: cell-based; details: for IC50: Homo sapiens
Procedure: as §1
The IC50 values given in Tables 1-4 were measured using the B1031 ([…]) compound) shown in Section IIB above. To confirm the generality of the results with respect to other fluribprofen analogs prepared in accordance with the invention, IC50 values for the other 11 analog compounds given in Section IIB were similarly determined for the H2122 lung carcinoma cell line.
as §5, §3
Briefly, approximately 1,000-5,000 cancer cells from 15 different cancer cells lines were plated in 100 μL of growth medium in 96-well flat-bottomed microtiter plates. Cells were incubated overnight to allow recovery. Compounds to be tested were added to the cells in triplicate in a range of concentrations and the cells were incubated at 37° C., 5% CO2, with 100% humidity. Control cells were treated in the same way without antagonists. […] Plates were incubated for 4 days, allowing sufficient time for cell replication and compound-induced cell death to occur. On day 5, 25 μL of a 2 mg/mL solution of MTT (Sigma) dissolved in RMPI-1640 was added to each well. The plate was incubated for 4 h at 37° C. The supernatant liquid was removed and the blue formazan complex was dissolved by adding 100 μL of 0.02 N HCl in 75% isopropanol to all wells. Absorbance was immediately determined using a scanning multiwell plate reader.

[10] = system: UMSCC2; assay: MTT cell viability, UMSCC2; type: cell-based; details: UM-SCC2; Head and neck cancer cell line UMSCC2
Procedure: as §1, §2, §3, §4

[11] = system: H417; assay: MTT cell viability, H417; type: cell-based; details: Homo sapiens, NCI-H417, 96 h; SCLC lung cell line H417; 4 days incubation
Procedure: as §1, §5, §3, §6

## C[C@H](C(=O)N[C@@H](Cc1ccc(-c2ccccc2)cc1)C(=O)NC1CC(C)(C)NC(C)(C)C1)c1ccc(-c2ccccc2)c(F)c1 [GCBH-110, N—[(S)-2-Fluoro-α-methyl-4-biphenylacetyl]-[L-(4-phenylphenyl)alanine]-N-(2,2,6,6-tetramethyl-4-piperidinyl)amide]
[1]
  IC50: 1500 nM
[2]
  IC50: 300 nM
[3]
  IC50: 360 nM
[4]
  IC50: 800 nM
[5]
  IC50: 400 nM
[6]
  inhibition of MiaPaCa pancreatic carcinoma tumor growth: 66%
[7]
  percent cells in G1, S, or G2 cell phase: marked shift of the cell populations away from the S and G2 phases to the G1 phase
[8]
  IC50: 250 nM
[9]; H2122 lung cancer cell line, versus DNA demethylase inhibitor Aza-dC
  activity in inhibiting H2122 cells relative to Aza-dC: many-fold more active
[9]; H2122 lung cancer cell line, versus HDACi Syn275
  activity in inhibiting H2122 cells relative to Syn275 (fold less active): about 4 fold
[9]; NCI-H2122, 96 h, Adenocarcinoma lung cell line H2122, 4 days incubation, read-out: IC50
  IC50: 150 nM
[9]; NCI-H2122, IC50 values for the H2122 lung carcinoma cell line, Table 5, read-out: H2122 In vitro
  IC50: 150 nM
[10]
  IC50: 950 nM
[11]
  IC50: 1400 nM

Source: patent publication US8575170B2, “Flurbiprofen analogs and methods of use in treating cancer” (The Regents of the Unversity of Colorado, a body corporate, priority 2010, dated 2013)
